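Step 1: Grow cells in 96-well plates. Step 2: Expose to compound for 48 hours at 5 concentrations. Step 3: Interpolate endpoints linearly; if unreached, use highest concentration. Abbreviation: GI50, concentration required for 50% inhibition of growth.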 Active and inactive are the calls of the source. Cut-off read from the data, not from the text of the source: active = GI50 up to about 1.1 µM and inactive = higher.

Test systems include NCI-H226; IGROV-1; HOP-92; MDA-MB-435; HCT-15; UACC-62; KM12; SF-268; SR; COLO 205; A498; HCT-116; HT-29; SK-MEL-5; RPMI-8226; SNB-19; NCI/ADR-RES; Malme-3M; MOLT-4; DU-145.
Holding throughout (experiment): growth of human tumour cells (NCI), 48 h

In the case of `Cc1ccc(S(=O)(=O)n2c3c(c4ccccc42)CCN2C(=O)C(S(=O)(=O)c4ccccc4)=CCC32)cc1` (stereo not given), the GI50 with NCI-H226 is 1.77 µM (inactive); in the experiment on IGROV-1, 0.184 µM (active); in the experiment on HOP-92 it was 0.149 µM (active); in the experiment with MDA-MB-435, 0.211 µM (active); with HCT-15 it was 0.188 µM; in the experiment on UACC-62, 0.27 µM (active). For the same compound, the GI50 is 0.194 µM (active) in the experiment on KM12; 0.238 µM (active) with SF-268; 0.255 µM (active) in the experiment on SR; 0.236 µM (active) with COLO 205; 0.213 µM (active) with A498; 0.17 µM (active) in the experiment on HCT-116. Further, the GI50 with HT-29 was 0.212 µM (active); in the experiment with SK-MEL-5, 0.165 µM (active); with RPMI-8226, 0.327 µM (active); in the experiment on SNB-19, 0.652 µM (active); in the experiment on NCI/ADR-RES, 0.218 µM (active); in the experiment on Malme-3M it was 0.213 µM (active). The values for the GI50 in the experiment on MOLT-4 and with DU-145 were 0.304 µM (active) and 0.17 µM (active), respectively.

For `CCOC(=O)N/N=C(/OCC)c1ccccc1`, the GI50 is > 100 µM (inactive) in the experiment with NCI-H226; > 100 µM (inactive) in the experiment with IGROV-1; > 100 µM (inactive) in the experiment with HOP-92; > 100 µM (inactive) in the experiment on MDA-MB-435; over 100 µM in the experiment with HCT-15; > 100 µM (inactive) in the experiment on UACC-62. The GI50 in the experiment with KM12, with SF-268, in the experiment with SR, in the experiment with COLO 205, with A498 and in the experiment on HCT-116 was > 100 µM (inactive) each time. Also, the GI50 in the experiment on HT-29, in the experiment on SK-MEL-5, with RPMI-8226, in the experiment on SNB-19, in the experiment with NCI/ADR-RES and with Malme-3M was > 100 µM (inactive) in each case. Further, the GI50 in the experiment on MOLT-4 and with DU-145 was > 100 µM (inactive) throughout.

`COc1ccc(NC(=O)CC(=O)n2nc(-c3ccccc3)c(/N=N/c3ccccc3C)c2-c2ccccc2)cc1`: the GI50 with NCI-H226 is 26 µM (inactive); in the experiment with IGROV-1 it was 21.4 µM (inactive); in the experiment with HOP-92, 15.6 µM (inactive); in the experiment on MDA-MB-435, > 100 µM (inactive); in the experiment on HCT-15, 35.5 µM; with UACC-62, 19.2 µM (inactive). For the same compound, the GI50 in the experiment on KM12 is 53.3 µM (inactive); with SF-268, 17.9 µM (inactive); in the experiment with SR, 35.9 µM (inactive); in the experiment on COLO 205, > 61.7 µM (inactive); in the experiment on A498, 21.5 µM (inactive); in the experiment on HCT-116, 20.5 µM (inactive). In addition, the GI50 in the experiment with HT-29 is 44.9 µM (inactive); in the experiment with SK-MEL-5, 40.2 µM (inactive); in the experiment on RPMI-8226, > 58.5 µM (inactive); in the experiment on SNB-19, 25.2 µM (inactive); with NCI/ADR-RES, 29.6 µM (inactive); in the experiment on Malme-3M it was 24.3 µM (inactive). The GI50 is > 64.1 µM (inactive) in the experiment with MOLT-4 and 45.8 µM (inactive) with DU-145.

As to `Cc1cn(C2CC(N=[N+]=[N-])C(C(=O)O)O2)c(=O)[nH]c1=O` (stereo not given), the GI50 with NCI-H226 is > 100 µM (inactive); in the experiment on IGROV-1 it was > 100 µM (inactive); in the experiment with HOP-92, > 100 µM (inactive); with MDA-MB-435 it was > 100 µM (inactive); with HCT-15 it was over 100 µM; with UACC-62, > 100 µM (inactive). Moreover, the GI50 in the experiment with KM12, in the experiment on SF-268, in the experiment on SR, with COLO 205, with A498 and with HCT-116 was > 100 µM (inactive) throughout. In addition, the GI50 in the experiment on HT-29 was > 100 µM (inactive); in the experiment with SK-MEL-5, < 0.01 µM (active); in the experiment with RPMI-8226 it was > 100 µM (inactive); in the experiment with SNB-19, > 100 µM (inactive); with NCI/ADR-RES it was > 100 µM (inactive); in the experiment with Malme-3M it was > 100 µM (inactive). The GI50 with MOLT-4 and in the experiment with DU-145 was > 100 µM (inactive) throughout.

For `CC1OC(OC2C(O)COC(OC3C(C)OC(OC4C(OC(=O)[C@]56CCC(C)(C)C[C@@H]5C5=CCC7[C@@]8(C)C[C@H](O)[C@H](OC9OC(CO)C(O)C(OC%10OC(CO)C(O)C(O)C%10O)C9O)[C@@](C)(CO)[C@@H]8CC[C@@]7(C)[C@]5(C)CC6)OCC(O)C4O)C(O)C3OC3OCC(O)C(O)C3O)C2O)C(O)C(O)C1O` (stereo not given in full), the GI50 in the experiment with NCI-H226 was 7.82 µM (inactive); in the experiment with IGROV-1, 6.12 µM (inactive); with HOP-92, 12.3 µM (inactive); with MDA-MB-435, 2.66 µM (inactive); with HCT-15 it was 13.5 µM; in the experiment with UACC-62 it was 3.66 µM (inactive). Further, the GI50 is 8.61 µM (inactive) in the experiment on KM12; 12.2 µM (inactive) with SF-268; 7.08 µM (inactive) in the experiment on SR; 1.92 µM (inactive) with COLO 205; 2.15 µM (inactive) in the experiment with A498; 11.3 µM (inactive) with HCT-116. Further, the GI50 in the experiment on HT-29 is 18.7 µM (inactive); in the experiment with SK-MEL-5, 4.45 µM (inactive); in the experiment on RPMI-8226, 13.9 µM (inactive); in the experiment with SNB-19, 7.67 µM (inactive); in the experiment with NCI/ADR-RES, 10.9 µM (inactive); with Malme-3M it was 10.1 µM (inactive). The values for the GI50 in the experiment on MOLT-4 and with DU-145 were 16.6 µM (inactive) and 7.1 µM (inactive), respectively.

On to `Cn1c(=O)cc(NNc2ccccc2)[nH]c1=O`, for which the GI50 in the experiment with NCI-H226 was > 100 µM (inactive); with IGROV-1 it was 25.4 µM (inactive); with HOP-92, 22.1 µM (inactive); with MDA-MB-435, 28.2 µM (inactive); with HCT-15, 16.4 µM; with UACC-62, 59.4 µM (inactive). The GI50 with KM12 is 26.3 µM (inactive); in the experiment with SF-268 it was 44.3 µM (inactive); in the experiment on SR it was 10.7 µM (inactive); in the experiment with COLO 205 it was > 100 µM (inactive); in the experiment with A498, > 100 µM (inactive); in the experiment with HCT-116, 17.8 µM (inactive). Also, the GI50 is 15.7 µM (inactive) with HT-29; > 100 µM (inactive) in the experiment on SK-MEL-5; 17.1 µM (inactive) with RPMI-8226; > 100 µM (inactive) with SNB-19; > 100 µM (inactive) with NCI/ADR-RES; 19.9 µM (inactive) in the experiment with Malme-3M. In addition, the GI50 with MOLT-4 was 37.9 µM (inactive); in the experiment on DU-145 it was 54.2 µM (inactive).

For the compound `O=C(Nc1cccc2ccccc12)c1cc2ccccc2oc1=O`, the GI50 is 21.8 µM (inactive) with NCI-H226; 18.5 µM (inactive) in the experiment on IGROV-1; > 100 µM (inactive) in the experiment on HOP-92; > 100 µM (inactive) in the experiment with MDA-MB-435; over 100 µM with HCT-15; > 100 µM (inactive) in the experiment with UACC-62. Moreover, the GI50 was > 100 µM (inactive) in the experiment with KM12; 23.3 µM (inactive) in the experiment with SF-268; > 100 µM (inactive) in the experiment on SR; > 100 µM (inactive) in the experiment on COLO 205; 47.9 µM (inactive) with A498; 36.8 µM (inactive) in the experiment on HCT-116. For the same compound, the GI50 is 28.1 µM (inactive) in the experiment with HT-29; > 100 µM (inactive) in the experiment on SK-MEL-5; > 100 µM (inactive) with RPMI-8226; 22 µM (inactive) with SNB-19; 60.3 µM (inactive) with NCI/ADR-RES; 12.5 µM (inactive) in the experiment on Malme-3M. Also, the GI50 in the experiment on MOLT-4 and with DU-145 was > 100 µM (inactive) in each case.

`COC1C(=O)CCC2(CO2)C1(O)C1(C)OC1CCC(C)C` (stereo not given): the GI50 in the experiment with NCI-H226 is > 100 µM (inactive); in the experiment with IGROV-1 it was 48.1 µM (inactive); with HOP-92, > 100 µM (inactive); in the experiment on MDA-MB-435 it was 61.1 µM (inactive); with HCT-15 it was 29.4 µM; with UACC-62 it was 36.2 µM (inactive). Further, the GI50 is 10.2 µM (inactive) in the experiment with KM12; 78.3 µM (inactive) in the experiment with SF-268; > 100 µM (inactive) in the experiment with SR; 23.9 µM (inactive) with COLO 205; > 100 µM (inactive) in the experiment on A498; 21.5 µM (inactive) in the experiment on HCT-116. Besides, the GI50 in the experiment on HT-29 was 22.2 µM (inactive); with SK-MEL-5, 21.5 µM (inactive); in the experiment on RPMI-8226, > 100 µM (inactive); in the experiment on SNB-19, 34.2 µM (inactive); in the experiment with NCI/ADR-RES, > 100 µM (inactive); in the experiment with Malme-3M, 30.2 µM (inactive). For the same compound, the GI50 in the experiment with MOLT-4 is 40.1 µM (inactive); in the experiment with DU-145, 5.6 µM (inactive).

On to `CC(C)CCNC(=O)c1ccc(CNC(=O)/C=C/c2cccc(Oc3ccccc3)c2)cc1`, for which the GI50 in the experiment on NCI-H226 was 47.4 µM (inactive); with IGROV-1, 67.5 µM (inactive); in the experiment with HOP-92, 53.2 µM (inactive); in the experiment on MDA-MB-435, 13.6 µM (inactive); in the experiment with HCT-15 it was 38.6 µM; in the experiment on UACC-62 it was 23.8 µM (inactive). Moreover, the GI50 with KM12 was 44 µM (inactive); in the experiment on SF-268, 37.3 µM (inactive); in the experiment on SR, 8.77 µM (inactive); with COLO 205, > 100 µM (inactive); with A498 it was 30.8 µM (inactive); in the experiment on HCT-116, 24.5 µM (inactive). Besides, the GI50 was 30.5 µM (inactive) in the experiment with HT-29; 51.2 µM (inactive) with SK-MEL-5; 67.9 µM (inactive) with RPMI-8226; 24.5 µM (inactive) in the experiment with SNB-19; 37.2 µM (inactive) in the experiment on NCI/ADR-RES; > 100 µM (inactive) in the experiment with Malme-3M. Moreover, the GI50 in the experiment with MOLT-4 was > 100 µM (inactive); in the experiment on DU-145, 70.3 µM (inactive).

Turning to `NS(=O)(=O)c1ccc(/N=N/c2nc3[nH]cnc(=S)c3[nH]2)cc1`, the GI50 with NCI-H226 was 4.65 µM (inactive); in the experiment on IGROV-1, 7.29 µM (inactive); with HOP-92, 11.1 µM (inactive); in the experiment with MDA-MB-435, 0.975 µM (active); in the experiment on HCT-15, 2.09 µM; with UACC-62, 0.388 µM (active). In addition, the GI50 in the experiment with KM12 was 4.1 µM (inactive); in the experiment with SF-268, 0.885 µM (active); in the experiment with SR, 0.0803 µM (active); in the experiment with COLO 205, 2.43 µM (inactive); in the experiment on A498 it was 23 µM (inactive); in the experiment with HCT-116 it was 0.568 µM (active). Moreover, the GI50 in the experiment on HT-29 is 1.34 µM (inactive); with SK-MEL-5, 5.36 µM (inactive); in the experiment with RPMI-8226 it was 0.31 µM (active); in the experiment with SNB-19 it was > 100 µM (inactive); with NCI/ADR-RES it was 0.365 µM (active); in the experiment on Malme-3M it was 1.93 µM (inactive). Further, the GI50 in the experiment on MOLT-4 is 0.134 µM (active); in the experiment with DU-145, 0.638 µM (active).

The record behind these values is ChEMBL document CHEMBL1201862, “PubChem BioAssay data set” (2004).
